# Columns and labels:
# [1] = molecular target: T1, Nuclear receptor subfamily 4 group A member 2 (Homo sapiens, UniProt P43354); assay: Activation of Nurr1 expressed in MN9D cells by luciferase reporter gene assay; format: cell-based
# [2] = molecular target: T1, Nuclear receptor subfamily 4 group A member 2; assay: Activation of Nurr1 expressed in MN9D cells by luciferase reporter gene assay relative to control; format: cell-based; parameters: concentration or dose not given beside the values
# [3] = Bioavailability in mouse at 10 umol/kg, po; format: ADME, organism-based; conditions: in vivo
# T1 sequence (P43354 whole entry): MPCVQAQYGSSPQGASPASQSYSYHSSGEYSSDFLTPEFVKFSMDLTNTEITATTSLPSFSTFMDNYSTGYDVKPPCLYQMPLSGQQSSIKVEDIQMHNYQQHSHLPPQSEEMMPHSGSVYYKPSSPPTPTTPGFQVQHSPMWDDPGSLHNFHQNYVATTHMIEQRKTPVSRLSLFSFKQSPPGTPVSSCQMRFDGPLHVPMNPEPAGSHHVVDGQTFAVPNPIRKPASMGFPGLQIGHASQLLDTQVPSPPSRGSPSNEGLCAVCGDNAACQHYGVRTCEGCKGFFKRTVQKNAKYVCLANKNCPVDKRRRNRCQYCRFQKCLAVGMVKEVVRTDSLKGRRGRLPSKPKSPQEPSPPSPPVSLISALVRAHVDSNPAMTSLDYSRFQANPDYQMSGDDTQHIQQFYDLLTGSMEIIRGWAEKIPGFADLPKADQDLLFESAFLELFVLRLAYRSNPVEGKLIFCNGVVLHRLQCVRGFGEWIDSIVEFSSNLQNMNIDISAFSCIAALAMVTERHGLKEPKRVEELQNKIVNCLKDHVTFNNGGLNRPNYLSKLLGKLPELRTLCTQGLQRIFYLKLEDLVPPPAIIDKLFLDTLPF
structure (smiles),measurement,setting,value
CC(C)OCCOCc1ccc(-c2cc3onc(-c4ccccc4)c3c(=O)n2C)cc1,EC50,[1],113 nM
same,Activity,[2],173%
COc1ccc(-c2cc3onc(-c4ccccc4)c3c(=O)n2C)c(OC)c1,EC50,[1],59.2 nM
same,Activity,[2],202%
COc1ccc(-c2cc3onc(-c4ccccc4)c3c(=O)n2C)cc1,EC50,[1],4.1 nM
same,Activity,[2],185%
CN(C)Cc1ccc(-c2cc3onc(-c4ccccc4)c3c(=O)n2C)cc1,EC50,[1],26 nM
same,Activity,[2],171%
COCCOCc1ccc(-c2cc3onc(-c4ccccc4)c3c(=O)n2C)cc1,EC50,[1],3.9 nM
same,Activity,[2],208%
same,bioavailability,[3],95%
Cn1c(-c2ccc3c(c2)OCO3)cc2onc(-c3ccccc3)c2c1=O,EC50,[1],0.8 nM
same,Activity,[2],202%
Cn1c(-c2ccc(Oc3ccccc3)cc2)cc2onc(-c3ccccc3)c2c1=O,EC50,[1],> 2000 nM
Cn1c(-c2ccc(COCCO)cc2)cc2onc(-c3ccccc3)c2c1=O,EC50,[1],3.5 nM
same,Activity,[2],226%
Cc1cc2onc(-c3ccccc3)c2c(=O)n1C,EC50,[1],> 2000 nM
O=c1[nH]c(-c2ccccc2)cc2onc(-c3ccccc3)c12 [ISOXAZOLOPYRIDINONE],EC50,[1],77.5 nM
same,Activity,[2],207%
Cn1c(-c2ccncc2)cc2onc(-c3ccccc3)c2c1=O,EC50,[1],130 nM
same,Activity,[2],198%
CN1CCN(Cc2ccc(-c3cc4onc(-c5ccccc5)c4c(=O)n3C)cc2)CC1,EC50,[1],31.9 nM
same,Activity,[2],163%
